One experiment has as its target T1, HIV-1 RT WT (Human immunodeficiency virus type 1 group M subtype B, UniProt P03366).
T1 construct: mutations that occur in the reverse transcriptase segment of the pol gene
Description: Reverse Transcriptase (RT) assay, wild type. Format: biochemical. From the text: (§1) Based upon testing of these compounds, as described below, it is known that they inhibit the RNA-dependent DNA polymerase activity of HIV-1 RT. Utilizing the Reverse Transcriptase (RT) Assay described below, compounds can be tested for their ability to inhibit the RNA-dependent DNA polymerase activity of HIV-1 RT. Certain specific compounds described in the Examples which appear below, were so tested. The results of this testing appear in Table 2 as IC50 (nM) and EC50 (nM).
(§2) The assays are as described in WO 01/96338A1, the contents of which are hereby incorporated herein. The results are listed in Table 2 as IC50(nM) and EC50 (nM).

For another experiment, the target named is T2, HIV-1 RT K103N/Y181C (Human immunodeficiency virus type 1 group M subtype B, UniProt P03366, K702N/Y780C).
T2 construct: mutations that occur in the reverse transcriptase segment of the pol gene
As to the kind of experiment: Reverse Transcriptase (RT) assay, double mutant K103N/Y181C. The experiment is classed as biochemical.
Source text: as §1, §2

For experiment [1], the system named is wild type HIV-1 replication. As to the kind of experiment: Cell-based assay, wild type HIV.
Source text: as §2

The source of these data is patent publication US7273861B2, “Non-nucleoside reverse transcriptase inhibitors” (Boehringer Ingelheim (Canada) Ltd., priority 2002, dated 2007).

Like-named read-outs stand apart in the source and are kept apart here.

On to “4′-{(9H-imidazo[1,2-d]dipyrido[2,3-b:3′,2′-f][1,4]diazepin-12-yl)ethoxy}-3′-methyl-[1,1′-biphenyl]4-acetic acid [Entry 119]”, for which the IC50 on HIV-1 RT WT (wild type RT, read-out: IC50 WT) was less than 50 nM; on HIV-1 RT K103N/Y181C (double mutant K103N/Y181C RT, read-out: IC50 K103N/Y181C), less than 50 nM. For the same molecule, the EC50 in experiment [1] is less than 10 nM.

As for `CCN1c2ncc(CCOc3cccc4c3CNC(=O)N4)cc2-c2nc(C)cn2-c2cccnc21` [Entry 101], the IC50 on HIV-1 RT WT was less than 50 nM; on HIV-1 RT K103N/Y181C, more than 100 nM.

With `CCN1c2ncc(CCOc3cccc4c3C=CS(=O)(=O)N4C)cc2-c2ncc(C)n2-c2cccnc21` [Entry 102], the IC50 against HIV-1 RT WT and against HIV-1 RT K103N/Y181C was less than 50 nM each time. The molecule further displayed an EC50 in experiment [1] (Human immunodeficiency virus 1) of less than 10 nM.

`CCN1c2ncc(CCOc3cccc4c3CNC4=O)cc2-c2ncc(C)n2-c2cccnc21` [Entry 103]: the IC50 against HIV-1 RT WT was less than 50 nM; at HIV-1 RT K103N/Y181C it was more than 100 nM. The same molecule gave an EC50 in experiment [1] (Human immunodeficiency virus 1) of less than 10 nM.

Turning to `CCN1c2ncc(CCOc3cccc4c3CCS(=O)(=O)N4)cc2-c2ncc(C)n2-c2cccnc21` [Entry 104], the values for the IC50 against HIV-1 RT WT and against HIV-1 RT K103N/Y181C were less than 50 nM and 50 to 100 nM, respectively.

As for `CCN1c2ncc(CCOc3cccc4c3CNS4(=O)=O)cc2-c2ncc(C)n2-c2cccnc21` [Entry 105], the IC50 at HIV-1 RT WT and against HIV-1 RT K103N/Y181C was less than 50 nM throughout.

Consider `CCN1c2ncc(CCOc3cccc4c3COC(=O)N4)cc2-c2ncc(C)n2-c2cccnc21` [Entry 106], for which the IC50 against HIV-1 RT WT was less than 50 nM; against HIV-1 RT K103N/Y181C, more than 100 nM.

Consider `CCN1c2ncc(CCOc3ccc4c(c3)C(C)(C)NS4(=O)=O)cc2-c2nccn2-c2c(C)ccnc21` [Entry 107], for which the IC50 at HIV-1 RT WT and against HIV-1 RT K103N/Y181C was less than 50 nM throughout.

`CCN1c2ncc(CCOc3cccc4c3CNC(=O)N4)cc2-c2nccn2-c2c(C)ccnc21` [Entry 108]: the IC50 on HIV-1 RT WT and against HIV-1 RT K103N/Y181C was less than 50 nM in each case.

As to `CCN1c2ncc(CCOc3cccc4c3CNC(=O)N4)cc2-c2nccn2-c2cccnc21` [Entry 109], the IC50 against HIV-1 RT WT and at HIV-1 RT K103N/Y181C was less than 50 nM throughout.

As for `CCN1c2ncc(CCOc3cccc4c3CCNC4=O)cc2-c2ncc(C)n2-c2cccnc21` [Entry 110, 9-Ethyl-3-methyl-12-{2-{(1,2,3,4-ttrahydro-1-oxo-5-isoquinolinyl)oxy}ethyl}-9H-imidazo[1,2-d]dipyrido[2,3-b:3′,2′-f][1,4]diazepine], the IC50 was less than 50 nM against HIV-1 RT WT and more than 100 nM against HIV-1 RT K103N/Y181C.

In the case of `CCN1c2ncc(CCOc3cccc4c3CN(C)C(=O)N4C)cc2-c2ncc(C)n2-c2cccnc21` [Entry 111], the IC50 on HIV-1 RT WT is less than 50 nM; against HIV-1 RT K103N/Y181C, more than 100 nM.

For `CCOC(=O)N1c2cccc(OCCc3cnc4c(c3)-c3nccn3-c3c(C)ccnc3N4CC)c2CS1(=O)=O` [Entry 112], the IC50 at HIV-1 RT WT and on HIV-1 RT K103N/Y181C was less than 50 nM in each case.

In the case of `CCN1c2ncc(CCOc3cccc4c3CS(=O)(=O)N4)cc2-c2nccn2-c2c(C)ccnc21` [Entry 113], the IC50 on HIV-1 RT WT was less than 50 nM; against HIV-1 RT K103N/Y181C, 50 to 100 nM.

Regarding `CCN1c2ncc(CCOc3cccc4c3CS(=O)(=O)N4CC(=O)OC(C)(C)C)cc2-c2nccn2-c2c(C)ccnc21` [Entry 114], the IC50 against HIV-1 RT WT was less than 50 nM; against HIV-1 RT K103N/Y181C, 50 to 100 nM.

Take `CCN1c2ncc(CCOc3cccc4c3CS(=O)(=O)N4CC(=O)O)cc2-c2nccn2-c2c(C)ccnc21` [Entry 115]: the IC50 on HIV-1 RT WT is less than 50 nM; at HIV-1 RT K103N/Y181C it was 50 to 100 nM. In experiment [1] (Human immunodeficiency virus 1), this molecule had an EC50 of more than 50 nM.

As for `CCN1c2ncc(CCOc3ccc(C(=O)O)cc3C)cc2-c2nccn2-c2cccnc21` [Entry 117], the IC50 was less than 50 nM on HIV-1 RT WT and more than 100 nM on HIV-1 RT K103N/Y181C. This molecule also registered an EC50 in experiment [1] (Human immunodeficiency virus 1) of less than 10 nM.

With `CCN1c2ncc(CCOc3ccc(C(=O)O)cc3C)cc2-c2ncc(C)n2-c2cccnc21` [Entry 118], the IC50 on HIV-1 RT WT and on HIV-1 RT K103N/Y181C was less than 50 nM throughout.

On to `CCN1c2ncc(CCOc3ccc(-c4ccc(CC(=O)O)cc4)cc3C)cc2-c2ncc(C)n2-c2cccnc21` [Entry 120], for which the IC50 was less than 50 nM on HIV-1 RT WT and 50 to 100 nM on HIV-1 RT K103N/Y181C.

For the molecule `CCN1c2ncc(CCOc3ccc(C(=O)O)c4c3CCCC4)cc2-c2ncc(C)n2-c2cccnc21` [Entry 121], the IC50 is less than 50 nM on HIV-1 RT WT and more than 100 nM against HIV-1 RT K103N/Y181C.

Consider `CCN1c2ncc(CCOc3ccc(C(=O)O)c4ccccc34)cc2-c2ncc(C)n2-c2cccnc21` [Entry 122], for which the IC50 against HIV-1 RT WT is less than 50 nM; at HIV-1 RT K103N/Y181C it was more than 100 nM.
